Assay results reported in article PMC13534789, “Molecular Glue Degraders Enhance CAPRIN1‐Dependent Lysosomal Degradation of APP and Reduce Amyloid β in Alzheimer's Disease” (Advanced Science, 2026).

Tests used:
[1] = system: Aβ42; assay: Aβ42 ELISA of conditioned media, HEK-APP695WT cells; type: cell-based, human; details: 72 h
Experimental: iPSC‐Ns or HEK‐APP695WT were treated with drugs, and secreted Aβ42 peptides inculture soup were quantified using the Human Amyloid β1‐42 human ELISA kit (Thermo Fisher) according to the manufacturer's protocol. Mouse brain extraction was performed as previously described, with minor modifications. Mouse brain tissues were homogenized at a 1:10 weight‐to‐volume ratio in Tris‐buffered saline (TBS; 50 mM Tris, pH 7.4, 150 mM NaCl) supplemented with 2 mM EDTA and protease inhibitors. TBS‐homogenized brains were centrifuged for 1 h at 16 000 g. To extract total Aβ, including insoluble fractions, formic acid was added to a final concentration of 70%, and the samples were thoroughly mixed by pipetting. […] Prior to quantification, formic acid‐containing samples were neutralized with 1 M Tris base (pH 11). Aβ40 and Aβ42 levels were measured using human‐specific ELISA kits (Invitrogen) and normalized to total protein concentrations determined by the BCA assay (Thermo Scientific). For Aβ quantification in 3D organoids, 3D organoids’ processing and ELISA analysis were performed with minor modifications from previously described protocols. […] Aβ42 levels in both fractions were measured using human‐specific ELISA kits (Thermo Fisher) according to the manufacturer's instructions. […] Aβ levels were normalized to total protein concentration determined by BCA assay.

[2] = system: HEK‐APP695WT cells; assay: CellTiter-Glo cell viability, HEK cells; type: cell-based, human; details: 10 µM, 72 h
[3] = system: rhCAPRIN1 and rhAPP; assay: ThermoFluor assay with recombinant proteins; type: binding, human; details: proteins 5 µM
Experimental: For the Thermofluor assay, Huynh's protocol was used with minor modifications. In brief, all proteins were used at a final concentration of 5 µM for this assay, and GloMelt Thermal Shift Protein Stability Kit (Biotium) was used at a final concentration of 0.5X. All experiments were carried out with QuantStudio 6 Flex (Applied Biosystems). SYBR was used as a reporter, and ROX was used as a passive reference according to the manufacturer's directions. Melting curve data were exported, followed by analysis with Boltzmann's sigmoidal curve in GraphPad Prism.

[4] = system: CAPRIN1, G3BP1, BACE1, ADAM10, PSEN1, nicastrin, GGA1, Sorla, neprilysin; assay: Western blot of CAPRIN1, G3BP1 and other AD-related proteins; type: cell-based, human; details: 10 µM
[5] = system: iPSC‐Ns; assay: Cell viability / cytotoxicity of iPSC-derived neurons; type: cell-based, human; details: AG27606-Ns, 10 µM, 72 h
Experimental: Cytotoxicity test was conducted using Neutral Red Uptake assay. In brief, iPSC‐Ns seeded in 96 well plates (1 × 10^5 cells/well) were treated dose‐dependently for 5 days. Cells were washed with PBS containing CaCl2 and MgCl2 followed by the addition of Neutral red solution (40 µg/mL in PBS, Sigma–Aldrich) and incubation at 37°C for 3 h. Cells were then washed with PBS containing CaCl2 and MgCl2 two times and de‐stained using with Neutral red de‐staining solution on a plate shaker for 30 min, followed by reading at 540 nm with a Microplate reader. Cell viability was determined using the CellTiter‐Glo Luminescent Cell Viability Assay (Promega) following the manufacturer's instructions. […]

[6] = Tolerability and body weight in 5xFAD mice; type: in vivo
From the text: Female 5xFAD transgenic mice (9–10 weeks old) were used to evaluate the efficacy of 0152 in reducing amyloid pathology. Mice were housed under Indiana University standard laboratory conditions. For intraperitoneal (IP) administration, mice received either vehicle or 0152 (indicated concentrations) in a formulation consisting of 20% DMSO, 20% Cremophor EL, and 60% PBS. For oral (PO) administration, mice received either vehicle or 0152 (indicated concentrations) in a formulation consisting of 10% NMP (N‐methyl‐2‐pyrrolidone), 10% PG (Propylene Glycol), 5% Solutol HS‐15, and 75% Captisol (10% w/v in RO water). At the end of the treatment period, mice were sacrificed, and their brains were collected for histological analysis. Brain tissues were fixed in 10% Formalin, embedded in paraffin, and sectioned. Thioflavin S staining was performed to visualize β‐sheet‐rich amyloid plaques, and immunohistochemistry was conducted using the 6E10 monoclonal antibody to detect Aβ plagues. Body weights were recorded daily throughout the study.

[7] = system: AD iPSC‐derived organoids; assay: AD iPSC-derived 3D brain organoids; type: cell-based, human
Experimental: For generating brain 3D organoids, Lancaster's protocol and Paşca's protocol were used with minor modifications. In brief, 9000 cells/ 100 µL of each well were seeded in Ultra‐low attachment 96 well U‐bottom plates (Sbio) supplemented with 10 µM of ROCK inhibitor. The next day, 100 µL of mTeSR1 was added, and the cells were cultured as embryonic bodies (EB) for 5 days at 37°C in 5% CO2 incubator. When the size of EB reached 400–600 µm, EBs were transferred into ultra‐low binding 24 well (Corning) with 200 µL of neural differentiation medium (Neurobasal medium (Gibco), 2% B27, 1X Glutamax) with 2 µg/mL of Doxycycline and incubated for 5 days at 37°C in 5% CO2 incubator until the size of EB was 700–800 µm. During this step, one EB was in one well, and the culture medium was changed every day with fresh neural differentiation medium with Doxycycline. At day 10, the EB was embedded into 15 µL of 100% Matrigel (Corning), and the embedded EBs were cultured in neural differentiation medium without Doxycycline in 6 well ultra‐low binding plates (Corning). […]
iPSC‐Ns or HEK‐APP695WT were treated with drugs, and secreted Aβ42 peptides inculture soup were quantified using the Human Amyloid β1‐42 human ELISA kit (Thermo Fisher) according to the manufacturer's protocol. […] Prior to quantification, formic acid‐containing samples were neutralized with 1 M Tris base (pH 11). Aβ40 and Aβ42 levels were measured using human‐specific ELISA kits (Invitrogen) and normalized to total protein concentrations determined by the BCA assay (Thermo Scientific). For Aβ quantification in 3D organoids, 3D organoids’ processing and ELISA analysis were performed with minor modifications from previously described protocols. […] Aβ42 levels in both fractions were measured using human‐specific ELISA kits (Thermo Fisher) according to the manufacturer's instructions. […] Aβ levels were normalized to total protein concentration determined by BCA assay. […]

SMILES	Aβ42 in conditioned media ([1]; 10 µM)	Extracellular Aβ42 (ELISA) ([1]; increasing concentrations)	Cell viability (CellTiter-Glo) [2]	Thermal shift of recombinant CAPRIN1 and APP [3]	CAPRIN1 and G3BP1 protein levels ([4]; HEK-APP695WT cells, 12–72 h)	Levels of other AD-related proteins (BACE1, ADAM10, PSEN1, nicastrin, GGA1, Sorla, neprilysin) ([4]; SAD2.3-Ns, 72 h)	Neuronal toxicity (CellTiter-Glo) [5]	Tolerability, body weight ([6]; 80 mg/kg IP twice per day, 30 days)	Body weight ([6]; 80 mg/kg oral gavage twice daily, 30 days)	Tolerability (lethargy, ataxia, paralysis, seizures, weight loss) ([6]; 100 mg/kg IP daily, 24 days)	APP/Aβ42 immunoreactivity in organoids ([7]; AG27606 and UKBi011A organoids, 10 µM)	Aβ42 in organoids by ELISA ([7]; AG27606 organoids, RIPA-soluble and formic acid-solubilized fractions)	CAPRIN1–APP colocalization in organoids ([7]; AG27606 organoids, treated for three months)
N#Cc1cccc(NC(=O)Nc2nc3ccc(C(=O)N4CCOCC4)cc3s2)c1 [compound 0043]	most potent in reducing Aβ42	reduced intracellular APP and extracellular Aβ42 levels in a dose‐dependent manner	without inducing cytotoxicity	thermal shifts for both proteins	no effect	did not affect levels	–	–	–	–	–	–	–
COc1cccc(NC(=O)Nc2nc3ccc(C(=O)N4CCOCC4)cc3s2)c1 [compound 0152]	–	–	–	–	–	–	without neuronal toxicity	well tolerated with no weight loss	no observed weight loss	tolerated treatment well	reduced APP/Aβ42 levels	significantly reduced Aβ42 levels	increased CAPRIN1–APP colocalization
